From PMC2774256 (Bioorganic & medicinal chemistry, 2009)
Square brackets hold non-standard residues; d marks the D form. Ends that are not written are not given here. * marks the point of attachment. dNMeF = CN[C@H](Cc1ccccc1)C(=O)O; Cha = N[C@@H](CC1CCCCC1)C(=O)O; NMeL = CN[C@@H](CC(C)C)C(=O)O; dNMeV = CN[C@@H](C(=O)O)C(C)C; NMeV = CN[C@H](C(=O)O)C(C)C; Cbz = O=C(OCc1ccccc1)*; Bn = c1ccc(C*)cc1

Experiments:
[1] = tested on: PL-45 pancreatic cancer cells; assay: 3H-thymidine incorporation/growth inhibition assay
[2] = tested on: BxPC-3 pancreatic cancer cells; assay: 3H-thymidine incorporation/growth inhibition assay

Row | Substance | cytotoxicity / growth inhibition in words [1] | cytotoxicity / growth inhibition in words [2]
1 | FL[dV][dL]L [Compound 37] | not potent | not potent
2 | F[dNMeF]V[Cha]L [Compound 49] | underwhelming cytotoxicity | underwhelming cytotoxicity
3 | [dF]L[NMeV][dL][dF] [Compound 61] | relatively non-toxic | relatively non-toxic
4 | FL[NMeV]L[dF] [Compound 62] | relatively non-toxic | relatively non-toxic
5 | [dY][dNMeF]VLL [Compound 15] | cytotoxic | very poor cytotoxicity
6 | FLVK(Cbz)[NMeL] [Compound 68] | not toxic | not toxic
7 | cyclo(FL[dNMeV][dK][dF]) [Compound 64] | not toxic | not toxic
8 | F[dNMeF][dV]LL [Compound 32] | cytotoxic | very poor cytotoxicity
9 | F[dNMeF]V[Cha]S(Bn) [Compound 60] | not effective | not effective
